The subject of assay [1] is Rodents (NPY, ob/ob, agouti, fasted feeding models). The note with it: injected intracerebroventricularly (ICV); cited from earlier work.
The test system of assay [2] is male volunteers / patients with psychogenic erectile dysfunction. As to conditions: cited from earlier work.
The target of assay [3] is T1, cloned human MC4R receptors (Homo sapiens, UniProt P32245).
T1 construct: expressed in transfected cells; host or cells: Hi5 insect cells or HEK-293 cells (baculovirus/human MC4R receptor construct); membranes
T1 sequence (P32245 whole entry): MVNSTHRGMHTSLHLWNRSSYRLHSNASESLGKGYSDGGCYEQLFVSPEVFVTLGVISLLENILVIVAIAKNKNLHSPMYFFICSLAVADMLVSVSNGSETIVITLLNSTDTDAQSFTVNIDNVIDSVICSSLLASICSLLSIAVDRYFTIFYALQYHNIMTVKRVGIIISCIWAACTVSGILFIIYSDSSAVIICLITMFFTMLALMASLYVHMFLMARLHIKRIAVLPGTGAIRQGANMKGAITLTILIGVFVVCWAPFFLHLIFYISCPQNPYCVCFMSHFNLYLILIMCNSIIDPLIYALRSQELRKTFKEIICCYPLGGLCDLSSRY
Description: Melanocortin MC4R membrane binding assay ([125I]NDP-α-MSH competition). As to conditions: [125I]NDP-α-MSH 0.1 nM, membranes of Hi5 insect cells or HEK-293 cells, 90 minutes at 37° C. The protocol: Melanocortin MC4R Binding Assay. […] A membrane binding assay was used to identify competitive ligands of [^125I]NDP-α-MSH binding to cloned human MC4R receptors expressed in Hi5 insect cells or HEK-293 cells transfected by a baculovirus/human MC4R receptor construct. The membrane binding buffer was composed of 25 mM HEPES, pH 7.4, 140 mM NaCl, 1.2 mM MgCl2, 2.5 mM CaCl2, and 0.1% BSA Membrane protein (0.5 μg) and [^125I]-NDP-α-MSH (to a final concentration of 0.1 nM) were added. Competing ligands or a buffer blank were added and incubated for 90 minutes at 37° C. After filtration, the cell membranes were evaluated in a Wallac Microbeta Trilux Scintillation and Luminescence Counter (Model 1450). Dose-response cureves were fitted by […] analyses and IC50 values are calculated using ExcelFit.

Where [4] appears, read: intramuscular, 0.005–0.03 mg/kg, three normal male volunteers.

For melanotan-II [MT-II], the food intake entry in assay [1] is on record as “reduced food intake”. Also, in assay [2] (setting [4]), the penile erections result was “caused intermittent non-painful penile erections” and the “period of erections after dosing” value was 1 to 5 h. Also, the erections result in assay [2] (subcutaneous, 0.025 mg/kg and 0.1 mg/kg, 10 patients with psychogenic erectile dysfunction) is reported as “caused transient erections”. Further, the responders in assay [2] (subcutaneous, 0.025 mg/kg and 0.1 mg/kg, of 10 patients with psychogenic erectile dysfunction) was 8. The onset of erections in assay [2] (subcutaneous, 0.025 mg/kg and 0.1 mg/kg, patients with psychogenic erectile dysfunction) was 50 to 180 min.
SHU-9119: the food intake result in assay [1] was “reverses this effect and can induce hyperphagia”.
Consider `NCCC(=O)N[C@H](Cc1ccc(Cl)cc1)C(=O)N1CC[C@H](N(C(=O)c2ccco2)C2CCCCC2)C1` [Example 24], for which the IC50 (usually the concentration that inhibits the measured activity by half) in assay [3] fell in the range of 1000 to 10000 nM.
For the compound `CCCCCC(=O)N(C1CCCCC1)C1CN(C(=O)[C@@H](Cc2ccc(Cl)cc2)NC(=O)CCN(C)C)C1` [Example 15], the IC50 in assay [3] lay within 250 to 1000 nM.
In the case of `NCCC(=O)N[C@H](Cc1ccc(Cl)cc1)C(=O)N1CC[C@H](N(C(=O)c2ccno2)C2CCCCC2)C1` [Example 22], in assay [3], the IC50 was below 250 nM.
In turn, `NCCC(=O)N[C@H](Cc1ccc(Cl)cc1)C(=O)N1CC[C@H](N(C(=O)CC2CCCC2)C2CCCCC2)C1` [Example 33] registered an IC50 in assay [3] below 250 nM.
Take `CC(C)C(=O)N(C1CCCCC1)[C@H]1CCN(C(=O)[C@@H](Cc2ccc(Cl)cc2)NC(=O)CCN)C1` [Example 45]: in assay [3], the IC50 is below 250 nM.
The same measure, in the same setting: for `NCCC(=O)N[C@H](Cc1ccc(Cl)cc1)C(=O)N1CC[C@H](N(C(=O)c2ccco2)C2CCCCC2)C1` [Example 26] the value was below 250 nM; for `CN(C)CCC(=O)N[C@H](Cc1ccc(Cl)cc1)C(=O)N1CC(N(C2CCCCC2)S(=O)(=O)c2ccccc2)C1` [Example 5], 250 to 1000 nM.
Turning to `CN(C)CCC(=O)N[C@H](Cc1ccc(Cl)cc1)C(=O)N1CC[C@H](N(C(=O)c2ccco2)C2CCCC2)C1` [Example 64], the concentration for half-maximal inhibition (IC50) in assay [3] was 250 to 1000 nM.
In the case of `CCCC(=O)N(C1CCCCCC1)C1CN(C(=O)[C@@H](Cc2ccc(Cl)cc2)NC(=O)CCN(C)C)C1` [Example 3], the IC50 in assay [3] was 250 to 1000 nM.

The record behind these values is patent US7049323B2, “Amidoheterocycles as modulators of the melanocortin-4 receptor” (Bristol-Myers Squibb Company, priority 2003, dated 2006).
